These results are taken from patent US7378413B2, “2-amino-3-(alkyl)-pyrimidone derivatives” (Sanofi Aventis, priority 2000, dated 2008).

Structures are written as SMILES. Counter-ions that a name gives are not always drawn.

A word on the melting point: it is the temperature of the solid-liquid transition. For the compound `Cn1c(NCC=Cc2ccccc2)nc(-c2ccncc2)cc1=O` (as salt: hydrochloride) [Compound 95, 3-Methyl-2-(3-phenyl-allylamino)-6-pyridin-4-yl-3 H-pyrimidin-4-one], the melting point lay in the range of 198 to 200 °C.

As for `CCOCCCNc1nc(-c2ccncc2)cc(=O)n1C` [Compound 59, 2-(3-Ethoxy-propylamino)-3-methyl-6-pyridin-4-yl-3H-pyrimidin-4-one], the melting point fell in the range of 118 to 120 °C. With `CC(C)OCCCNc1nc(-c2ccncc2)cc(=O)n1C` [Compound 63, 2-(3-Isopropoxy-propylamino)-3-methyl-6-pyridin-4-yl-3H-pyrimidin-4-one] the figure was 95 to 98 °C. With `COc1ccccc1CCNc1nc(-c2ccncc2)cc(=O)n1C` [Compound 4, 2-[[2-(2-methoxyphenyl)ethyl]amino]-3-methyl-6-pyridin-4-ylpyrimidin-4(3H)-one] the figure was 149.2 to 149.5 °C; with `NCCCCn1c(NCCc2ccccc2)nc(-c2ccncc2)cc1=O` (as salt: hydrochloride) [Compound 89, 3-(4-Amino-butyl)-2-phenethylamino-6-pyridin-4-yl-3H-pyrimidin-4-one], 170 to 175 °C; with `NCCCCNc1nc(-c2ccncc2)cc(=O)n1CCCc1ccccc1` (as salt: hydrochloride) [Compound 41, 2-(4-Amino-butylamino)-3-(3-phenyl-propyl)-6-pyridin-4-yl-3H-pyrimidin-4-one], 134 to 136 °C. `CC(=O)OCCCOc1cccc(CNc2nc(-c3ccncc3)cc(=O)n2C)c1` [Compound 73, Acetic acid 3-{3-[(1-methyl-6-oxo-4-pyridin-4-yl-1 ,6-dihydro-pyrimidin-2-ylamino)-methyl]-phenoxy}-propyl ester] yielded a melting point of 198 to 201 °C.
